{"source": "patent US9198918B2", "about": "“Benzoxazepin PI3K inhibitor compounds and methods of use” (Genentech, Inc., priority 2009, dated 2015)", "key": {"PI3K alpha (p110 alpha)": {"biological_target": "T1, PI3K alpha (p110 alpha) (Homo sapiens, UniProt P42336)", "T1 construct": "purchased Upstate Cell Signaling Solutions, Charlottesville, Va", "test": "PI3K p110α (alpha) binding assay (Example 901)", "conditions": "read-out: IC50, inhibition of PI3K alpha (binding to p110 alpha)", "from_the_text": "Determination of the PI3 kinase activity of a Formula I compound is possible by a number of direct and indirect detection methods."}, "AU565": {"test_system": "AU565", "test": "CellTiter-Glo cell proliferation assay, AU565", "assay_type": "cell-based", "conditions": "Homo sapiens, Breast, mutation status WT", "procedure": "(§1) Efficacy of Formula I compounds was measured by a cell proliferation assay employing the following protocol (Promega Corp. Technical Bulletin TB288; Mendoza et al (2002) Cancer Res. 62:5485-5488):\n(§2) 1. An aliquot of 100 μl of cell culture containing about 104 cells (PC3, Detroit562, or MDAMB361.1) in medium was deposited in each well of a 384-well, opaque-walled plate.\n(§3) 2. Control wells were prepared containing medium and without cells.\n(§4) 3. The compound was added to the experimental wells and incubated for 3-5 days.\n(§5) 4. The plates were equilibrated to room temperature for approximately 30 minutes.\n(§6) 5. A volume of CellTiter-Glo Reagent equal to the volume of cell culture medium present in each well was added.\n(§7) 6. The contents were mixed for 2 minutes on an orbital shaker to induce cell lysis.\n(§8) 7. The plate was incubated at room temperature for 10 minutes to stabilize the luminescence signal.\n(§9) 8. Luminescence was recorded and reported in graphs as RLU=relative luminescence units.\n(§10) Alternatively, cells were seeded at optimal density in a 96 well plate and incubated for 4 days in the presence of test compound. Alamar Blue™ was subsequently added to the assay medium, and cells were incubated for 6 hr before reading at 544 nm excitation, 590 nm emission. EC50 values were calculated using a sigmoidal dose response curve fit. The term EC50 refers to the half maximal effective concentration and is the concentration at which a drug induces a response halfway between the baseline and maximum after some specified exposure time. It is commonly used as a measure of drug potency.\n(§11) The anti-proliferative effects of Formula I exemplary compounds were measured by the CellTiter-Glo® Assay against various tumor cell lines, including the following: […]"}, "CAL120": {"test_system": "CAL120", "test": "CellTiter-Glo cell proliferation assay, CAL120", "assay_type": "cell-based", "conditions": "Homo sapiens, CAL-120, Breast, mutation status WT", "procedure": "as §1, §2, §3, §4, §5, §6\n6. […]\nas §8, §9\n(§12) Alternatively, cells were seeded at optimal density in a 96 well plate and incubated for 4 days in the presence of test compound. Alamar Blue™ was subsequently added to the assay medium, and cells were incubated for 6 hr before reading at 544 nm excitation, 590 nm emission. EC50 values were calculated using a sigmoidal dose response curve fit. […]\nas §11"}, "CAL51": {"test_system": "CAL51", "test": "CellTiter-Glo cell proliferation assay, CAL51", "assay_type": "cell-based", "conditions": "Homo sapiens, CAL-51, Breast, mutation status PI3K/PTEN", "procedure": "as §1, §2, §3, §4, §5, §6\n6. […]\nas §8, §9, §12, §11"}, "EFM19-2A": {"test_system": "EFM19-2A", "test": "CellTiter-Glo cell proliferation assay, EFM19-2A", "assay_type": "cell-based", "conditions": "EFM-192A, Breast, mutation status WT", "procedure": "as §1, §2, §3, §4, §5, §6\n6. […]\nas §8, §9, §12, §11"}, "EVSA-T": {"test_system": "EVSA-T", "test": "CellTiter-Glo cell proliferation assay, EVSA-T", "assay_type": "cell-based", "conditions": "Homo sapiens, Breast, mutation status PTEN", "procedure": "as §1, §2, §3, §4, §5, §6, §7, §8, §9, §10, §11"}, "HCC1954": {"test_system": "HCC1954", "test": "CellTiter-Glo cell proliferation assay, HCC1954", "assay_type": "cell-based", "conditions": "Homo sapiens, Breast, mutation status PI3K", "procedure": "as §1, §2, §3, §4, §5, §6, §7, §8, §9, §10, §11"}, "KPL4": {"test_system": "KPL4", "test": "CellTiter-Glo cell proliferation assay, KPL4", "assay_type": "cell-based", "conditions": "Breast, mutation status PI3K", "procedure": "as §1, §2, §3, §4, §5, §6, §7, §8, §9, §10, §11"}, "MCF7": {"test_system": "MCF7", "test": "CellTiter-Glo cell proliferation assay, MCF7", "assay_type": "cell-based", "conditions": "Homo sapiens, Breast, mutation status PI3K", "procedure": "as §1, §2, §3, §4, §5, §6\n6. […]\nas §8, §9, §12, §11"}, "MDA-MB-231": {"test_system": "MDA-MB-231", "test": "CellTiter-Glo cell proliferation assay, MDA-MB-231", "assay_type": "cell-based", "conditions": "Homo sapiens, Breast, mutation status K-RAS", "procedure": "as §1, §2, §3, §4, §5, §6\n6. […]\nas §8, §9, §12, §11"}, "MDA-MB-361.1": {"test_system": "MDA-MB-361.1", "test": "CellTiter-Glo cell proliferation assay, MDA-MB-361.1", "assay_type": "cell-based", "conditions": "Breast, mutation status PI3K", "procedure": "as §1, §2, §3, §4, §5, §6, §7, §8, §9, §10, §11"}, "MFM223": {"test_system": "MFM223", "test": "CellTiter-Glo cell proliferation assay, MFM223", "assay_type": "cell-based", "conditions": "Homo sapiens, MFM-223, Breast, mutation status PI3K", "procedure": "as §1, §2, §3, §4, §5, §6, §7, §8, §9, §10, §11"}, "SKBR3": {"test_system": "SKBR3", "test": "CellTiter-Glo cell proliferation assay, SKBR3", "assay_type": "cell-based", "conditions": "Homo sapiens, SK-BR-3, Breast, mutation status WT", "procedure": "as §1, §2, §3, §4, §5, §6\n6. […]\nas §8, §9, §12, §11"}, "T47D": {"test_system": "T47D", "test": "CellTiter-Glo cell proliferation assay, T47D", "assay_type": "cell-based", "conditions": "Homo sapiens, Breast, mutation status PI3K", "procedure": "as §1, §2, §3, §4, §5, §6, §7, §8, §9, §10, §11"}, "Colo205": {"test_system": "Colo205", "test": "CellTiter-Glo cell proliferation assay, Colo205", "assay_type": "cell-based", "conditions": "Homo sapiens, COLO 205, Colon, mutation status B-Raf", "procedure": "as §1, §2, §3, §4, §5, §6\n6. […]\nas §8, §9, §12, §11"}, "HCT116": {"test_system": "HCT116", "test": "CellTiter-Glo cell proliferation assay, HCT116", "assay_type": "cell-based", "conditions": "Homo sapiens, HCT-116, Colon, mutation status PI3K/KRAS", "procedure": "as §1, §2, §3, §4, §5, §6\n6. […]\nas §8, §9, §12, §11"}, "RKO": {"test_system": "RKO", "test": "CellTiter-Glo cell proliferation assay, RKO", "assay_type": "cell-based", "conditions": "Homo sapiens, Colon, mutation status PI3K", "procedure": "as §1, §2, §3, §4, §5, §6\n6. […]\nas §8, §9, §12, §11"}, "LN229": {"test_system": "LN229", "test": "CellTiter-Glo cell proliferation assay, LN229", "assay_type": "cell-based", "conditions": "Homo sapiens, LN-229, Glioma, mutation status PI3K", "procedure": "as §1, §2, §3, §4, §5, §6\n6. […]\nas §8, §9, §12, §11"}, "U87MG": {"test_system": "U87MG", "test": "CellTiter-Glo cell proliferation assay, U87MG", "assay_type": "cell-based", "conditions": "Homo sapiens, U-87 MG, Glioma, mutation status PTEN", "procedure": "as §1, §2, §3, §4, §5, §6\n6. […]\nas §8, §9, §12, §11"}, "H1703": {"test_system": "H1703", "test": "CellTiter-Glo cell proliferation assay, H1703", "assay_type": "cell-based", "conditions": "Homo sapiens, NCI-H1703, Lung(NSCLC), mutation status WT", "procedure": "as §1, §2, §3, §4, §5, §6\n6. […]\nas §8, §9, §12, §11"}, "H2122": {"test_system": "H2122", "test": "CellTiter-Glo cell proliferation assay, H2122", "assay_type": "cell-based", "conditions": "Homo sapiens, NCI-H2122, Lung(NSCLC), mutation status K-RAS", "procedure": "as §1, §2, §3, §4, §5, §6, §7, §8, §9, §10, §11"}, "537MEL": {"test_system": "537MEL", "test": "CellTiter-Glo cell proliferation assay, 537MEL", "assay_type": "cell-based", "conditions": "Homo sapiens, Melanoma, mutation status PTEN", "procedure": "as §1, §2, §3, §4, §5, §6\n6. […]\nas §8, §9, §12, §11"}, "A2058": {"test_system": "A2058", "test": "CellTiter-Glo cell proliferation assay, A2058", "assay_type": "cell-based", "conditions": "Homo sapiens, Melanoma, mutation status PTEN", "procedure": "as §1, §2, §3, §4, §5, §6\n6. […]\nas §8, §9, §12, §11"}, "A375": {"test_system": "A375", "test": "CellTiter-Glo cell proliferation assay, A375", "assay_type": "cell-based", "conditions": "Homo sapiens, A-375, Melanoma, mutation status B-Raf", "procedure": "as §1, §2, §3, §4, §5, §6\n6. […]\nas §8, §9, §12, §11"}, "IGROV1": {"test_system": "IGROV1", "test": "CellTiter-Glo cell proliferation assay, IGROV1", "assay_type": "cell-based", "conditions": "Homo sapiens, IGROV-1, Ovarian, mutation status PI3K", "procedure": "as §1, §2, §3, §4, §5, §6\n6. […]\nas §8, §9, §12, §11"}, "TOV21GX1": {"test_system": "TOV21GX1", "test": "CellTiter-Glo cell proliferation assay, TOV21GX1", "assay_type": "cell-based", "conditions": "Ovarian, mutation status PI3K/PTEN", "procedure": "as §1, §2, §3, §4, §5, §6\n6. […]\nas §8, §9, §12, §11"}, "PC3": {"test_system": "PC3", "test": "CellTiter-Glo cell proliferation assay, PC3", "assay_type": "cell-based", "conditions": "Homo sapiens, PC-3, Prostate, mutation status PTEN", "procedure": "as §1, §2, §3, §4, §5, §6, §7, §8, §9, §10, §11"}}, "data": [{"smiles": "CC(C)n1ncnc1-c1cn2c(n1)-c1ccc(-c3cnn(CC(C)(C)O)c3)cc1OCC2", "note": "[compound 180, 1-(4-(2-(1-isopropyl-1H-1,2,4-triazol-5-yl)-5,6-dihydrobenzo[f]imidazo[1,2-d][1,4]oxazepin-9-yl)-1H-pyrazol-1-yl)-2-methylpropan-2-ol]", "values": [{"measurement": "IC50", "setting": "PI3K alpha (p110 alpha)", "result": 0.00018, "unit": "µM"}, {"measurement": "EC50", "setting": "AU565", "result": 0.23, "unit": "µM"}, {"measurement": "EC50", "setting": "CAL120", "result": 2.12, "unit": "µM"}, {"measurement": "EC50", "setting": "CAL51", "result": 0.672, "unit": "µM"}, {"measurement": "EC50", "setting": "EFM19-2A", "result": 0.146, "unit": "µM"}, {"measurement": "EC50", "setting": "EVSA-T", "result": 2.04, "unit": "µM"}, {"measurement": "EC50", "setting": "HCC1954", "result": 0.168, "unit": "µM"}, {"measurement": "EC50", "setting": "KPL4", "result": 0.039, "unit": "µM"}, {"measurement": "EC50", "setting": "MCF7", "result": 0.121, "unit": "µM"}, {"measurement": "EC50", "setting": "MDA-MB-231", "result": "≥ 10", "unit": "µM"}, {"measurement": "EC50", "setting": "MDA-MB-361.1", "result": 0.214, "unit": "µM"}, {"measurement": "EC50", "setting": "MFM223", "result": 0.439, "unit": "µM"}, {"measurement": "EC50", "setting": "SKBR3", "result": 0.144, "unit": "µM"}, {"measurement": "EC50", "setting": "T47D", "result": 0.123, "unit": "µM"}, {"measurement": "EC50", "setting": "Colo205", "result": 0.259, "unit": "µM"}, {"measurement": "EC50", "setting": "HCT116", "result": 1.02, "unit": "µM"}, {"measurement": "EC50", "setting": "RKO", "result": 2.5, "unit": "µM"}, {"measurement": "EC50", "setting": "LN229", "result": 0.869, "unit": "µM"}, {"measurement": "EC50", "setting": "U87MG", "result": 0.787, "unit": "µM"}, {"measurement": "EC50", "setting": "H1703", "result": 0.225, "unit": "µM"}, {"measurement": "EC50", "setting": "H2122", "result": 0.515, "unit": "µM"}, {"measurement": "EC50", "setting": "537MEL", "result": 2.43, "unit": "µM"}, {"measurement": "EC50", "setting": "A2058", "result": "≥ 10", "unit": "µM"}, {"measurement": "EC50", "setting": "A375", "result": "≥ 10", "unit": "µM"}, {"measurement": "EC50", "setting": "IGROV1", "result": 0.06, "unit": "µM"}, {"measurement": "EC50", "setting": "TOV21GX1", "result": 3.59, "unit": "µM"}, {"measurement": "EC50", "setting": "PC3", "result": 0.769, "unit": "µM"}]}]}
